Results published in ChEMBL document CHEMBL4680245, “Design, synthesis and biological evaluation of tetrahydroquinoline-based reversible LSD1 inhibitors” (Eur J Med Chem, 2020).
The source made the active and inactive calls. The rule behind the calls is not given here.

Experiments:
MGC-803 [1] = test: cells; settings: Homo sapiens, MGC-803, 72 h
Description: Antiproliferative activity against human MGC-803 cells incubated for 72 hrs by CCK8 assay

[2] = biological target: T1, Lysine-specific histone demethylase 1A (Homo sapiens, UniProt O60341)
Description: Inhibition of human recombinant LSD1 using fluorogenic ADHP based substrate preincubated for 30 mins followed by substrate addition measured after 10 mins by horseradish peroxidase coupled fluorescence assay

[3] = Stability in human liver microsomes assessed as parent compound remaining preincubated for 10 mins followed by NADPH regenerating system addition and measured up to 60 mins by LC-MS/MS analysis; assay type: ADME, Microsome; settings: time 10-70 min, read-out: Stabilty
CYP3A4 = CYP3A4 (Homo sapiens, UniProt P08684); test: Inhibition of CYP3A4 in human liver microsomes at 10 uM using CYP substrate preincubated for 10 mins followed by NADPH generating system addition and measured after 10 mins by LC-MS/MS analysis relative to control; assay type: ADME; settings: time 20 min
Sequence of CYP3A4 (P08684 whole entry): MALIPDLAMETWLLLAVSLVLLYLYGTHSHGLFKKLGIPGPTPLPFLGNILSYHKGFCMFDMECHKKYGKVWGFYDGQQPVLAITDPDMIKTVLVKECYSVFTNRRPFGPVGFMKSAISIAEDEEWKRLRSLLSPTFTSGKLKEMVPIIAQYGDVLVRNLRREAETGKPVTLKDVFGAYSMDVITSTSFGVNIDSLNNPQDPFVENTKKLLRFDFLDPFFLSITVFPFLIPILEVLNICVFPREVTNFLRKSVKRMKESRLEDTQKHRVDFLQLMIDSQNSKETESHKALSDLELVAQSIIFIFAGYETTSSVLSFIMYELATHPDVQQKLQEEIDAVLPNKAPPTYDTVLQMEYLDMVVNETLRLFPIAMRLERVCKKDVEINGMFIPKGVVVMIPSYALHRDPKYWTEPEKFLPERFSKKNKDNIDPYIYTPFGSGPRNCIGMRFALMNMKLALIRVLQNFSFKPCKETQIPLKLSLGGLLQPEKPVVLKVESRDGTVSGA

CYP2D6 = CYP2D6 (Homo sapiens, UniProt P10635); test: Inhibition of CYP2D6 in human liver microsomes at 10 uM using CYP substrate preincubated for 10 mins followed by NADPH generating system addition and measured after 10 mins by LC-MS/MS analysis relative to control; assay type: ADME; settings: time 20 min
Sequence of CYP2D6 (P10635 whole entry): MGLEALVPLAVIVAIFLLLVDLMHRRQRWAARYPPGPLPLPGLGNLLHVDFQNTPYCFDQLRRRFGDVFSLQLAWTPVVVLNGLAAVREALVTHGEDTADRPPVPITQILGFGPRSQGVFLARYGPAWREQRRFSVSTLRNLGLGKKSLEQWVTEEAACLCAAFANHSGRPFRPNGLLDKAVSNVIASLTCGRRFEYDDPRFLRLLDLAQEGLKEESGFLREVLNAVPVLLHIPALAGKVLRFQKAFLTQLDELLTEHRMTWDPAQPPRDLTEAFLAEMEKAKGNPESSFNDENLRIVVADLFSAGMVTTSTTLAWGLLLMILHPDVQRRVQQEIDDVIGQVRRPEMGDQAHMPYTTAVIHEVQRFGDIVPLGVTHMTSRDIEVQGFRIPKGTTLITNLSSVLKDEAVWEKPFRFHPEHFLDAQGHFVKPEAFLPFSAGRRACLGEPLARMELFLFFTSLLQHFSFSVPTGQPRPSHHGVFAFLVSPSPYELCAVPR

[4] = Intrinsic clearance in human microsomes preincubated for 10 mins followed by NADPH regenerating system addition and measured up to 60 mins by LC-MS/MS analysis; assay type: ADME, Microsome; settings: time 10-70 min
MCF7 = test: cells; settings: Homo sapiens, MCF7, 72 h
Description: Antiproliferative activity against human MCF7 cells incubated for 72 hrs by CCK8 assay

CYP1A2 = biological target: T2, CYP1A2 (Homo sapiens, UniProt P05177); test: Inhibition of CYP1A2 in human liver microsomes at 10 uM using CYP substrate preincubated for 10 mins followed by NADPH generating system addition and measured after 10 mins by LC-MS/MS analysis relative to control; assay type: ADME; settings: time 20 min
T2 sequence (P05177 whole entry): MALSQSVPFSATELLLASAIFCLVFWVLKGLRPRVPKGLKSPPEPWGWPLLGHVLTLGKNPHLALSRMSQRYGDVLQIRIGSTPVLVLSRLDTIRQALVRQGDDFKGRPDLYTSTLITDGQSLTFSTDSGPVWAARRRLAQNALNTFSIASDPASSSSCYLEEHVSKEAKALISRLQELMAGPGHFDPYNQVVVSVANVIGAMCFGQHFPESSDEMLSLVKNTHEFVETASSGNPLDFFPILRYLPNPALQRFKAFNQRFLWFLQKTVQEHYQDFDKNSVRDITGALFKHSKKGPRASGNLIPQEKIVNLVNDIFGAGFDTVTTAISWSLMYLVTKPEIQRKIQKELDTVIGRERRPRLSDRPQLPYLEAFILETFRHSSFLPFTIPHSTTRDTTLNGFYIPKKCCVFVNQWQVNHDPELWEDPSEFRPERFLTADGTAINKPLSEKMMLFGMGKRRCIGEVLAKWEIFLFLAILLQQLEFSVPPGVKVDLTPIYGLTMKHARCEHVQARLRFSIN

CYP2C19 = CYP2C19 (Homo sapiens, UniProt P33261); test: Inhibition of CYP2C19 in human liver microsomes at 10 uM using CYP substrate preincubated for 10 mins followed by NADPH generating system addition and measured after 10 mins by LC-MS/MS analysis relative to control; assay type: ADME; settings: time 20 min
Sequence of CYP2C19 (P33261 whole entry): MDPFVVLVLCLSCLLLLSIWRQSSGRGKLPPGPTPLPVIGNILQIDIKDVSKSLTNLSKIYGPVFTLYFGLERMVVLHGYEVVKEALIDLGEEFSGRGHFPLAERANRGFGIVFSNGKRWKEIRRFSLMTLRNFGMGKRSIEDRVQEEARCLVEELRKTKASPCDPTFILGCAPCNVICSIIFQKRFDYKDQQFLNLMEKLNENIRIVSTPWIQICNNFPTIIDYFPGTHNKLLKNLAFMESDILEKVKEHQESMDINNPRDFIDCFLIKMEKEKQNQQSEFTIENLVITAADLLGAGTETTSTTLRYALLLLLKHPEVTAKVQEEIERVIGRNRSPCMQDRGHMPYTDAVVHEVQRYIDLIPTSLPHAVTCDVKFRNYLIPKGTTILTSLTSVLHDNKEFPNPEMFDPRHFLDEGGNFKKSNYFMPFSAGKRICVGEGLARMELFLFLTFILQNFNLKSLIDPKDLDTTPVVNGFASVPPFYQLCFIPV

[5] = biological target: T3, Amine oxidase [flavin-containing] A (Homo sapiens, UniProt P21397); test: Inhibition of recombinant N-terminal FLAG-tagged human MAOA expressed in baculovirus infected Sf9 insect cells using luminogenic MAO substrate measured after 1 hr by MAO-glo assay
T3 sequence (P21397 whole entry): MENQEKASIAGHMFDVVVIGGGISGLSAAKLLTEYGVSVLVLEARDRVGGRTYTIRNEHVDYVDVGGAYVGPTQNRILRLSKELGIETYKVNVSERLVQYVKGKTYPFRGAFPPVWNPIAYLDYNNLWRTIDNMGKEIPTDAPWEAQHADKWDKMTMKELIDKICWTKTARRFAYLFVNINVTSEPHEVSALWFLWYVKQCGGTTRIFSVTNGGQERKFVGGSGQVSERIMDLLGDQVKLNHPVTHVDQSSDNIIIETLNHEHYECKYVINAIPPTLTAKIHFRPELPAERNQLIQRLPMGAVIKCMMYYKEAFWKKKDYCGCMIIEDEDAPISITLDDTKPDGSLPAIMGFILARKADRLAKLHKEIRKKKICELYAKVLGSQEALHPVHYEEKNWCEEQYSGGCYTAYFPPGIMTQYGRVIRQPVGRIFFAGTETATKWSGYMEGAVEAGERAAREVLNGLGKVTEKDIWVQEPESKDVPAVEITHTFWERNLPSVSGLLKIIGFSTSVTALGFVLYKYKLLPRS

A549 = test: cells; settings: Homo sapiens, A549, 72 h
Description: Antiproliferative activity against human A549 cells incubated for 72 hrs by CCK8 assay

MGC-803 [6] = test: Cell cycle arrest in human MGC-803 cells assessed as decrease in G2/M phase accumulation at 4 uM after 72 hrs by propidium iodide staining based flow cytometry; assay type: functional
[7] = Half life in human liver microsomes preincubated for 10 mins followed by NADPH regenerating system addition and measured up to 60 mins by LC-MS/MS analysis; assay type: ADME, Microsome; settings: time 10-70 min
CYP2C9 = CYP2C9 (Homo sapiens, UniProt P11712); test: Inhibition of CYP2C9 in human liver microsomes at 10 uM using CYP substrate preincubated for 10 mins followed by NADPH generating system addition and measured after 10 mins by LC-MS/MS analysis relative to control; assay type: ADME; settings: time 20 min
Sequence of CYP2C9 (P11712 whole entry): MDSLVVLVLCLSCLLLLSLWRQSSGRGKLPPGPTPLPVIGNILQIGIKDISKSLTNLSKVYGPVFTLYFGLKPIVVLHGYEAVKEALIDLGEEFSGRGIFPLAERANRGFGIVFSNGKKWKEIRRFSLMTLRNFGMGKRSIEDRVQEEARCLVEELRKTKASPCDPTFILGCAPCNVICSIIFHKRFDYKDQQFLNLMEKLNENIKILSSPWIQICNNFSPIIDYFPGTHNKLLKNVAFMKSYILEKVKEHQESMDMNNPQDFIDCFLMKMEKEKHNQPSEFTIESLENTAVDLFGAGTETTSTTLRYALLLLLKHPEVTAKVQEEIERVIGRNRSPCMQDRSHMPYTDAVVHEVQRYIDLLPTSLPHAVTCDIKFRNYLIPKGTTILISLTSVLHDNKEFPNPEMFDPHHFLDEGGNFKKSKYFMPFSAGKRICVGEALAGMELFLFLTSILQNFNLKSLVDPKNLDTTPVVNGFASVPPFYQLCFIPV

MGC-803 [8] = test: Antitumor activity against human MGC-803 cells xenografted in Balb/c nude mouse assessed as reduction in tumor volume at 100 mg/kg, po administered once daily via gavage for 21 days measured post last dose relative to control; assay type: functional; design: scale not given: the % may be the effect or the level left; settings: time 21 day
PC-3 = test: cells; settings: Homo sapiens, PC-3, 72 h
Description: Antiproliferative activity against human PC-3 cells incubated for 72 hrs by CCK8 assay

[9] = biological target: T4, Amine oxidase [flavin-containing] B (Homo sapiens, UniProt P27338); test: Inhibition of recombinant N-terminal FLAG-tagged human MAOB expressed in baculovirus infected Sf9 insect cells using luminogenic MAO substrate measured after 1 hr by MAO-glo assay
T4 sequence (P27338 whole entry): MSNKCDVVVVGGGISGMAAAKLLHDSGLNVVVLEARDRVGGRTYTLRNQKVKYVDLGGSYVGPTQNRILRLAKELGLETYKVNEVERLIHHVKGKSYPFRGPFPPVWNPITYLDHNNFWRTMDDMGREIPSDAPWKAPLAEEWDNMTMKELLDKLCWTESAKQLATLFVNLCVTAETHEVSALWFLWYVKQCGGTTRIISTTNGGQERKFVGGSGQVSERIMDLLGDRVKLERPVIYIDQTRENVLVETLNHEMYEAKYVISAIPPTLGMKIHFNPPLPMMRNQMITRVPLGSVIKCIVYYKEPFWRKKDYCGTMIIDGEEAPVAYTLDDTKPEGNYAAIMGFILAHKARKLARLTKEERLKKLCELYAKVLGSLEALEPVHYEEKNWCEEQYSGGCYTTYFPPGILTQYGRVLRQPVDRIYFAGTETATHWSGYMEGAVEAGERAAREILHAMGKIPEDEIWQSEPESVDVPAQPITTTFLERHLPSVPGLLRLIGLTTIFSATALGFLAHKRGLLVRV

[10] = Toxicity in human MGC-803 cells xenografted Balb/c nude mouse assessed as body weight loss at 50 to 100 mg/kg, po administered once daily via gavage for 21 days measured at 3 days interval during compound dosing; assay type: organism-based; settings: in vivo, 504 h, dose 50-100 mg/kg, time 21 day
[11] = Stability in human liver microsomes assessed as parent compound remaining measured 60 mins after mins by LC-MS/MS analysis; assay type: ADME, Microsome
[12] = biological target: T1, Lysine-specific histone demethylase 1A; test: Inhibition of LSD1 in human MGC-803 cells assessed as increase in H3K4me2 accumulation measured after 72 hrs by Western blot analysis; assay type: cell-based
NB-4 = test: cells; settings: Homo sapiens, NB-4, 72 h
Description: Antiproliferative activity against human NB-4 cells incubated for 72 hrs by CCK8 assay

MGC-803 [13] = test: Induction of apoptosis in human MGC-803 cells assessed as apoptotic rate at 4 uM after 72 hrs by Annexin V-FITC/propidium iodide staining based flow cytometry relative to control; assay type: functional
MGC-803 [14] = test: Cell cycle arrest in human MGC-803 cells assessed as increase in S phase accumulation at 4 uM after 72 hrs by propidium iodide staining based flow cytometry; assay type: functional
MGC-803 [15] = test: Antitumor activity against human MGC-803 cells xenografted in Balb/c nude mouse assessed as reduction in tumor weight at 100 mg/kg, po administered once daily via gavage for 21 days measured post last dose relative to control; assay type: functional; design: scale not given: the % may be the effect or the level left; settings: time 21 day
MGC-803 [16] = test: Induction of apoptosis in human MGC-803 cells after 72 hrs by Annexin V-FITC/propidium iodide staining based flow cytometry; assay type: functional, cell-based
THP-1 = test: cells; settings: Homo sapiens, THP-1, 72 h
Description: Antiproliferative activity against human THP-1 cells incubated for 72 hrs by CCK8 assay

[17] = biological target: T1, Lysine-specific histone demethylase 1A; test: Inhibition of LSD1 (unknown origin) by TR-FRET assay
[18] = Solubility of compound; assay type: physicochemical
[19] = biological target: T1, Lysine-specific histone demethylase 1A; test: Inhibition of LSD1 in human MGC-803 cells assessed as increase in H3K9me2 accumulation up to 4 uM measured after 72 hrs by Western blot analysis; assay type: cell-based; settings: dose microM <=4, time 72.0 hrs
[20] = biological target: T1, Lysine-specific histone demethylase 1A; test: Inhibition of LSD1 in human MGC-803 cells assessed as increase in H3K9me1 accumulation up to 4 uM measured after 72 hrs by Western blot analysis; assay type: cell-based; settings: dose microM <=4, time 72.0 hrs
[21] = biological target: T1, Lysine-specific histone demethylase 1A; test: Reversible inhibition of recombinant N-terminal FLAG-tagged human LSD1 expressed in baculovirus infected Sf9 insect cells at 10 times IC50 using H3K4me2 as substrate preincubated for 30 mins followed by 100 fold dilution and subsequent substrate addition and measured after 30 mins by jump dilution method; settings: time 60.0 min
[22] = biological target: T1, Lysine-specific histone demethylase 1A; test: Non-competitive inhibition of recombinant N-terminal FLAG-tagged human LSD1 expressed in baculovirus infected Sf9 insect cells up to 0.6 uM using varying levels of H3K4me2 as substrate measured after 45 mins by Lineweaver-burk plot analysis; settings: dose microM <=0.6, time 45.0 min

## Cn1c(C(=O)Nc2cccc3c2N(Cc2ccc(OC4CCNCC4)cc2)CCC3)cc2cc(F)ccc21
MGC-803 [1]
  IC50: 1.75 µM
[2]
  IC50: 540 pM
[3]
  remaining at 1 h: 57.5%
CYP3A4
  inhibition at 10 min, 10 µM: 40.1%
CYP2D6
  inhibition at 10 min, 10 µM: 6.1%
[4]
  microsomal CLint: 22.4 µL/min/mg
MCF7
  IC50: 9.49 µM
CYP1A2
  inhibition at 10 min, 10 µM: 4.6%
CYP2C19
  inhibition at 10 min, 10 µM: 16.1%
[5]
  IC50: > 50 µM
A549
  IC50: 3.01 µM
MGC-803 [6]
  Activity: Active
[7]
  half-life: 61.9 min
CYP2C9
  inhibition at 10 min, 10 µM: 0%
MGC-803 [8]
  Activity: 28.6%
PC-3
  IC50: 4.29 µM
[9]
  IC50: > 50 µM
[10]
  Activity: Non-Toxic
[11]; microsomes, 1 h
  Stabilty: 122.6%
[12]
  inhibition: Dose-dependent effect
NB-4
  IC50: 1.13 µM
MGC-803 [13]
  Activity: 24.86%
MGC-803 [14]
  Activity: Active
MGC-803 [15]
  Activity: 28.1%
MGC-803 [16]
  Activity: Dose-dependent effect
THP-1
  IC50: 9.63 µM

## CCOCc1cccc(NC(=O)c2cc3sccc3n2C)c1COc1ccc(OC[C@H]2CCNC2)cc1
[2]
  IC50: 100 pM
[17]
  IC50: 0.0078 µM

## Cn1c(C(=O)Nc2cccc3c2N(Cc2ccc(OCC4CC[N+](C)(C)CC4)cc2)CCC3)cc2sccc21
[2]
  IC50: 17300 pM
[18]
  solubility: Insoluble

## Cn1c(C(=O)Nc2cccc3c2N(Cc2ccc(OC4CC[N+](C)(C)CC4)cc2)CCC3)cc2sccc21
[2]
  IC50: 8250 pM
[18]
  solubility: Insoluble

## Cn1c(C(=O)Nc2cccc3c2N(Cc2ccc(OC4CCNCC4)cc2)CCC3)cc2ccccc21
MGC-803 [1]
  IC50: 1.13 µM
[19]
  inhibition: Active
[2]
  IC50: 50 pM
[3]
  remaining at 1 h: 20.3%
[4]
  microsomal CLint: 50.1 µL/min/mg
MCF7
  IC50: 5.83 µM
[20]
  inhibition: Active
[5]
  IC50: > 50 µM
A549
  IC50: 5.97 µM
MGC-803 [6]
  Activity: Active
[7]
  half-life: 27.7 min
[21]
  inhibition: Active
PC-3
  IC50: 2.86 µM
[9]
  IC50: > 50 µM
[22]
  inhibition: Active
[11]; liver microsomes, read-out: Stabilty
  remaining at 1 h: 101%
[12]
  inhibition: Dose-dependent effect
NB-4
  IC50: 9.53 µM
MGC-803 [13]
  Activity: 22.79%
MGC-803 [14]
  Activity: Active
MGC-803 [16]
  Activity: Dose-dependent effect
THP-1
  IC50: 9.68 µM

## O=C(Nc1cccc2c1N(Cc1ccc(OC3CCNCC3)cc1)CCC2)c1cc2ccccc2n1CCF
MGC-803 [1]
  IC50: 6.26 µM
[2]
  IC50: 60 pM
MCF7
  IC50: 6.96 µM
A549
  IC50: 7.67 µM
PC-3
  IC50: 2.6 µM
NB-4
  IC50: 3.29 µM
THP-1
  IC50: 9.78 µM

## CCn1c(C(=O)Nc2cccc3c2N(Cc2ccc(OC4CCNCC4)cc2)CCC3)cc2ccccc21
MGC-803 [1]
  IC50: 3.67 µM
[2]
  IC50: 150 pM
MCF7
  IC50: 5.59 µM
A549
  IC50: 8.39 µM
PC-3
  IC50: 5.43 µM
NB-4
  IC50: 1.1 µM
THP-1
  IC50: 10.2 µM
